Test: Human HepG2 cell viability assay in 384 well format
Format: toxicity, cell-based
Design: dose 125 nL, time 70.5 hour; cytotoxicity at 70.5 h: concentration not given beside the values
Conditions: HepG2 cells, read-out: Inhibition

SMILES	cytotoxicity at 70.5 h [%]
CCn1ccnc1CN(C)Cc1nc(CCC(C)C)no1	1.4
O=c1[nH]c(-c2ccc(F)c(F)c2)nc2c1CCNC2	-1.92
COCCCC1(CO)CCCN(CCc2ccccn2)C1 (stereo unspecified)	0.702
COc1cnc(N2CCCN(c3ccc(F)cc3)CC2)nc1	8.19
CN(Cc1n[nH]c(=O)n1Cc1ccco1)S(C)(=O)=O	2.27
NC(=O)c1csc(N2C[C@@H](CN3CCCCC3)[C@@H](CO)C2)n1	-6.7
Cc1cc(CN(C)C(=O)C(c2ccccc2C)N(C)C)on1 (stereo unspecified)	-6.35
CCCN(Cc1cccnc1)C(=O)C1CCCN(C)C1 (stereo unspecified)	2.68
Cc1nc[nH]c1CN1CCC(C2CCN(CCc3ccccc3)C2)CC1 (stereo unspecified)	-1.67
Cc1ccc(C(=O)N[C@H]2CN(CCO)C[C@@H]2C2CC2)cc1Cl	1.11
CCc1cc(N2CC(N3CCCCC3C)C2)n2nccc2n1 (stereo unspecified)	6.74
C=C(C)COc1cccc(C(=O)N(CC)Cc2noc(C)n2)c1	-3.04
COc1ccc(-c2n[nH]cc2CN(C)Cc2nonc2C)c(F)c1	-3.77
CCC[C@@H]1CN(Cc2cc(C#N)n(C)c2C)C[C@H]1NS(C)(=O)=O	-6.42
CCc1cnc(N)nc1NCCCN1CCCCC1CO (stereo unspecified)	-8.8
COCCn1ccnc1C1CCCN(c2cc(OC)nc(N)n2)C1 (stereo unspecified)	31.1
Cc1nccn1CCN(C)c1cc(C(C)C)nc2ccnn12	-2.26
Nc1ccnc(-c2cc(NC3CCNCC3)nc3[nH]ccc23)c1	-3.27
Cc1ccc(-n2c(COCC(=O)O)nc3c(C)cccc32)nc1	-4.5
COCc1nc(NC(C)Cc2cc(C)n[nH]2)c2cnn(C)c2n1 (stereo unspecified)	-0.0562
CCC(NC(=O)c1cc(CC(C)C)nn1C)c1cc(C)ccn1 (stereo unspecified)	-19.2
Cc1ccc(S(=O)(=O)N2CCN(C)C3(CCC(=O)N(C)CC3)C2)s1 (stereo unspecified)	-5.58
O=C(c1cccc(S(=O)(=O)NCCc2cscn2)c1)N1CCOCC1	-1.05

SMILES	cytotoxicity at 70.5 h [%]
COc1ccccc1OC1CCN(c2nccc(N)n2)CC1	19.5
O=C1NC[C@@]2(C(=O)O)CN(Cc3ccc(Oc4ccccc4)cc3)C[C@@H]12	-1.43
O=C(CCC1CCCN(C(=O)CCc2ccc(F)c(F)c2)C1)NC1CC1 (stereo unspecified)	-8.38
COc1cc(CN2CCC(O)(c3ccc(C)cn3)CC2)cc(Cl)c1OC	17.5
NC(=O)c1cccnc1N1CCN(c2ncnc3c2CCNC3)CC1	-1.91
Cc1cnc(NCCc2c[nH]cn2)nc1-c1ccnn1C	-11.6
O=C1N(CC2CCC2)CCCC12CCN(S(=O)(=O)c1cccnc1)C2 (stereo unspecified)	-4.23
COc1ccccc1-c1ncc(CN2C[C@H](O)[C@@H](N3CCCC3)C2)s1	-14.6
Cn1ccc(C(=O)N2CCCN(CCCc3ccccc3)CC2)cc1=O	-17.2
Cc1ccc2cc(CN(C)Cc3ncc[nH]3)c(=O)[nH]c2c1	26.6
Cc1ccc(C)c(C(=O)N2CCOC(CCN(C)C)C2)c1 (stereo unspecified)	-9.2
COc1ccc(Cl)cc1NC(=O)CCC1CCCN(Cc2ncon2)C1 (stereo unspecified)	-1.15
COCc1ncc(CN2CC(Oc3c(C)cccc3C)C2)cn1	-0.994
COCC1(NC(=O)Nc2nc(C)ns2)CCCC1	-13.9
COCC(=O)N1C[C@H]2CNC[C@@]2(C(=O)NCc2cccc3[nH]ccc23)C1	-3.16
CSc1nccc(N2C[C@@H]3CC[C@H](C2)N(CC2CCC2)C3=O)n1	13
COc1ccc(F)c(CN2CCCC(O)(CNCc3ccoc3)C2=O)c1 (stereo unspecified)	-0.0121
CN(CC1(CO)CCC1)C(=O)C1CCC(=O)N(Cc2ccc(Cl)cc2)C1 (stereo unspecified)	-1.24
Cc1ccsc1S(=O)(=O)N1CCc2c(c(C(=O)O)nn2CC2CC2)C1	-7.3
O=C1CN(Cc2cc(O)c3cccc(F)c3n2)CCN1C1CCCC1	5.5
COC(=O)c1ccc(N2CCN(C(=O)c3ccn(C)c(=O)c3)CC2)cc1	1.93
CN(Cc1ccccc1)C1(C(=O)NC(C)(C)CO)Cc2ccccc2C1	2.66
O=S(=O)(c1ccc(-c2cnco2)cc1)N1CCCC2(CCNCC2)CC1	0.207

SMILES	cytotoxicity at 70.5 h [%]
Nc1ccc(C(=O)N2C[C@@H]3CC[C@H](C2)N(Cc2ccccc2)C3)cn1	-2.24
CC(C)N1CCOC(Cc2nn3c(Cc4ccccc4)nnc3s2)C1 (stereo unspecified)	-18.2
CN(Cc1ccco1)c1ccc(-c2nccn2C)nn1	9.03
Nc1nccc(N[C@H]2CN(CC(=O)NC3CCCCC3)C[C@@H]2C2CC2)n1	5.92
Cn1cc(Cl)c(C(=O)N2CCCN(C3Cc4ccccc4C3)CC2)n1	47.8
COc1cc(F)ccc1-c1ncccc1NC(=O)C(C)C	-7.03
CCS(=O)(=O)CCNCc1cc(O)c2cc(C)cc(C)c2n1	0.215
c1cnc(N2CCC(C3CCN(CCCn4cccn4)C3)CC2)nc1 (stereo unspecified)	0.616
CSCCCN1CCC[C@]2(C(=O)O)CN(c3cnccn3)CC[C@@H]12	26.4
CC(O)c1cn(C2CCN(C(=O)C3(C)CCN(C)CC3)CC2)nn1 (stereo unspecified)	-10.9
NC(=O)c1cc(-n2cc(-c3cccc(C(=O)O)c3)cn2)cs1	-9.85
COc1cccc(C(=O)N2CCN(C(=O)CCCn3ccnc3)CC2)c1	26.1
CC(C)n1cnnc1Cn1c(=O)ccc2ccccc21	-2.43
CC(C)OCCCNC(=O)[C@@]12CNC[C@@H]1CN(S(C)(=O)=O)C2	13.6
CC(=O)NCCCC(=O)N1CCc2[nH]c(-c3ccccc3)nc2C1	-5.92
NC(=O)N1CCCC(C(=O)NCCc2nc(Cc3ccccc3)no2)C1 (stereo unspecified)	-17.9
COc1ccc(C(=O)N2CCC(Oc3ccccc3)(C(=O)O)CC2)o1	2.93
CN(Cc1ncc[nH]1)C(=O)C(C)(C)NC(=O)c1cccs1	-3.2
O=C(Nc1ccc2c(c1)OCCO2)N1CCCN(Cc2cccs2)CC1	0.682
Cc1ccc(CN(C)C(=O)c2n[nH]c(N)c2-c2ccccc2)o1	28.7
CCc1nc(C)sc1CN1CC[C@](O)(CC)[C@H](O)C1	-6.34
COC(=O)C1Cc2nc[nH]c2CN1Cc1ccc(Sc2ncccn2)o1 (stereo unspecified)	-0.897
COc1ccc(-c2n[nH]cc2CN(C)CCCN2CCOCC2)c(F)c1	-3.86

SMILES	cytotoxicity at 70.5 h [%]
CC(C)(NC(=O)C1CCCN(C2CCCC2)C1)c1nnc(N)s1 (stereo unspecified)	-3.27
CC(=O)N[C@@H]1CN(C(=O)c2csc(C(C)C)n2)C[C@H]1C(C)C	-7.11
Cc1cccc(=O)n1CCCNc1ncnc2c1CCNCC2	-6.31
Cc1cnc(N2CCN(C)CC2)nc1-c1ccnn1C	-13.9
O=C(NCCN1CCNC1=O)c1cc(-c2ccc(O)cc2)n[nH]1	-10.9
COCc1cn(C2CCN(C(=O)Cc3ccsc3)CC2)nn1	-9.06
COc1ncccc1C(=O)N1CCCC1c1nc(-c2ccccc2)no1 (stereo unspecified)	-5.54
CCCSCC(=O)N1CCC2(CC1)CC(c1ccccc1)CN(C)C2 (stereo unspecified)	4.01
c1ccc(CCNc2ncnc3c2CCN(Cc2c[nH]cn2)CC3)cc1	-0.00958
Cc1nc(-c2cccc(N3CCC(N[C@@H]4CCOC4)CC3)c2)cs1	0.567
COCCc1noc(CN2CCC3(CCCO3)CCC2=O)n1 (stereo unspecified)	15.5
NC(=O)NCC(=O)N1CCC2(CC1)c1ccccc1CC2O (stereo unspecified)	-11.6
Cc1noc(-c2ccc(N(C)Cc3cccnc3)nc2)n1	-15.4
CCn1cc(NC(=O)c2cccc(CN3C[C@@H](C)O[C@@H](C)C3)c2)nn1	4.2
CCN1CCN(C(=O)c2cc(-c3ccc(C)o3)n[nH]2)[C@H]2CS(=O)(=O)C[C@H]21	42.7
CC(C)(C)c1ncc2c(n1)CN(c1cc(NCCO)nc(N)n1)C2	-12
COc1ccc(N2CCC(N(C)C(C)C(=O)N(C)C)CC2)cc1 (stereo unspecified)	15.1
CNc1cc(-c2nc(CCN3CCCC3=O)no2)ccn1	12.1
COCC1CCCCN1C(=O)c1cc(-c2cccc(OC)c2)n[nH]1 (stereo unspecified)	-6.73
N#Cc1cccc(N2CCC3(CCC(=O)N(CC(N)=O)C3)CC2)n1	-8.42
COc1cccc2c1OCC(C(=O)NCc1c(C)noc1C)C2 (stereo unspecified)	-7.18
O[C@]12CCNC[C@H]1CN(c1ccnc3ccccc13)CC2	22.4
CCn1c(N)nc2cc(C(=O)N3CCC(N4CCCC4)CC3)cnc21	-5.99

SMILES	cytotoxicity at 70.5 h [%]
CC(C)c1cc(C(=O)N2CCN(CC3CC3)[C@@H]3CS(=O)(=O)C[C@@H]32)on1	-0.581
Cn1ccnc1CN1CCCC(CO)(CCc2ccccc2)C1 (stereo unspecified)	-8.1
CCC(NC(=O)c1coc(COc2cccc(F)c2F)n1)C(=O)NC (stereo unspecified)	-9.68
CC(=O)NCCNc1nccc(CCC(F)(F)F)n1	-10.3
CCCC1(CO)CCCN(C(=O)CNC(C)=O)C1 (stereo unspecified)	-10.4
Cc1nnsc1CN(C)C(=O)CN1CC2(CCNCC2)OC1=O	-2.76
CCSCC(C)NCc1ccccc1-n1ccnc1 (stereo unspecified)	-2.53
CN1CCC(c2nnc(CN3CCCC3)n2C2CC2)CC1	-6.39
COc1ccc(C)cc1S(=O)(=O)N[C@H]1CN(C(C)=O)C[C@@H]1C1CC1	-7.75
Cc1cc(N2CCC(O)(CN(C)C)C2)c2cc3c(cc2n1)OCO3 (stereo unspecified)	44.8
Cc1ccc(OC2(C(=O)O)CCN(C(=O)CCc3ccco3)CC2)cc1	-3.25
COCc1cc(NCCc2ccc(S(N)(=O)=O)cc2)n2nccc2n1	-20.7
CCc1cnc(C)nc1N1CCN(C(N)=O)CC1	-12.6
Cc1ccc2nc(CNCCCN3CCCC3=O)cc(O)c2c1	14.6
Cc1ccc(Cl)c(C)c1NC(=O)N1CCCN(Cc2ccccn2)CC1	2.01
COc1ccc(Cl)cc1NCCC(=O)NCCNc1cnccn1	3.74
CC(C)C(=O)NS(=O)(=O)c1ccc(C#N)cc1C(F)(F)F	-2.54
COc1cccc2cc(CNCc3ccc(N4CCCC4)nc3)oc12	16
Cc1noc(C(C)N2CCN(CCN3CCCC3=O)CC2)n1 (stereo unspecified)	-4.25
